Consider three compounds from EP2054729B1, “PROCESS AND APPARATUS FOR ION CHANNEL CHARACTERIZATION” (Universität Hannover, priority 2006, dated 2008).

The target in this assay is T1, connexin hCx26 (Homo sapiens, UniProt P29033).
T1 construct: made in house; host or cells: E. coli Top10
The experiment in a line: Permeation (gating activity) assay with ion channel protein in lipid membrane vesicles, fluorescence detection of Lucifer Yellow release. It is filed as biochemical. The note with it: for inhibitory effect: concentration range in which inhibition of gating activity was shown, same experimental setup as for carbenoxolone, vesicles adjusted to 50 µM Ca^2+, triggered by EDTA addition or heat pulse. Here is the method: Lipid membrane vesicles are generated by resuspending a POPC lipid film in 150 mM sodium chloride, 10 mM Tris-HCl, pH 8, containing Lucifer Yellow as a replacement for the cation species permeated by the exemplary ion channel protein.
Following centrifugation, the supernatant is removed and vesicles are suspended in the same medium for 10 minutes. As the ion channel protein, connexin hCx26, reconstituted to its hexameric form after expression in the E.coli strain Top10 (Invitrogen), using the expression plasmid pTrcHisTOPO (available from Invitrogen, Germany) containing the hCx26 gene under the control of a trc-promoter. The gene sequence is accessible at GenBank under accession number NP 003995. Cultivation was in LB-medium containing ampicillin as the selection marker at 37 °C.
For incorporation of ion channel protein, 250 µg/mL were solubilised in 30 mM octylglucoside, 150 mM sodium chloride, 10 mM Tris-HCl, pH 8 and added to 1 mL lipid membrane vesicle suspension (10 mg POPC/mL). After incubation for 1 to 12 hours under mild agitation at 4 °C, detergent was removed by dialysis for two days at 4 °C in 150 mM sodium chloride, 10 mM Tris-HCl, pH 8, including three changes of buffer volume. Finally, the vesicles were transferred by dialysis against buffer into 150 mM sodium chloride, 10 mM Tris-HCl, pH 8 at 4 °C for removal of the ion species, namely the replacement Lucifer Yellow or the physiologically permeated ion potassium, which are permeated by the ion channel protein present. […]
Starting at a basic temperature of 4 °C, the microtiter plate was heated incrementally by steps of 2 °C each using a thermostat, with intermediate or permanent measurement of fluorescence emission under irradiation at the excitation wavelength.
From a comparison of the increase of fluorescence at increasing temperatures of a reaction composition containing the effector to that measured for an identical composition, except for the absence of effector, allows to characterize the effector at its given concentration in the assay, e.g. as an inhibitor, activator or modulator of the gating activity. […]

Regarding `CC1(C)[C@@H](OC(=O)CCC(=O)O)CC[C@]2(C)[C@H]3C(=O)C=C4[C@@H]5C[C@@](C)(C(=O)O)CC[C@]5(C)CC[C@@]4(C)[C@]3(C)CC[C@@H]12` [carbenoxolone], the “concentration dependency of gating activity” value (carbenoxolone up to final concentrations of 10 mM, plate at 28 °C, result shown graphically only (Figures 9 and 10)) was “inhibitory effect”.

In the case of `CCCCCCCO` [heptanol], the inhibitory effect result was “nanomolar to picomolar range”.

With cobalt ions, the inhibitory effect entry was “millimolar to micromolar range”.
